The source of these data is a melting point compilation (Tetko et al.; mined from patent text by program, amines drawn as free bases though some values may be those of a salt).

For the compound `COc1ccc(Nc2nc(-c3ccccc3)c(-c3nc4ccccc4c(=O)n3-c3ccc(Cl)cc3)s2)cc1`, the melting point lay within 262 to 263 °C.
To `COc1ccc(CC(=O)NCCc2cccc3c2OCO3)cc1OC` belongs 124 °C; to `CC1CCCN1CCCN1CCN(CCCN2CCCC2C)C1=C(C#N)C#N` (stereo not given), 89 to 93 °C.
To `Cc1ccc(C2CC(=O)OC(=O)C2)cc1` belongs 160 to 162 °C; to `Oc1ccccc1-c1ccc(Cl)nn1`, 188 °C.
As for `CCOc1ccccc1OS(N)(=O)=O`, the figure is 62 to 65 °C; as for `COCCCNC(=O)c1ccc(-c2cc(-c3c(-c4cccc(C)n4)nc4ccccn34)ccn2)cc1`, 165 °C.
The compound `CCOC(=O)CCc1ccc(CBr)cc1` had a melting point of 132 °C.
As for `CC(C)CC(NC(=O)Cc1ccc(NC(=O)Nc2ccccn2)cc1)c1ncc(C(C)C(=O)O)s1` (stereo not given), the figure is 173 to 175 °C; as for `Cc1cc(CN2CCN(c3ccc(C(=O)NC4CC4)cc3Cl)CC2)cc2c1OC(C)C(=O)N2` (stereo not given), 252 to 255 °C; as for `COc1ccc2c(c1)CCC1CC(=O)N(c3ccccn3)N=C21` (stereo not given), 194 to 196 °C.
Consider `Nc1nc(Cl)c(Cl)c(NCC2(CO)CCC2)n1`, for which the melting point is 179 to 181 °C.
To `Clc1ncnc2c1N(C1CC=CC1)CN2` belongs 124 to 126 °C.
As for `CCS(=O)(=O)c1nn(-c2ccccc2)c(=O)c2c(N)scc12`, the figure is 190 to 191 °C.
As for `Cc1nc(-c2ccc(C(F)(F)F)cc2)sc1CSc1ccc(OCC(=O)O)c2ccccc12`, the figure is 181 to 183 °C.
Consider `CSc1ccc(-c2coc3ncc(-c4nnc(C)o4)cc23)cc1`, for which the melting point was in the range of 209 to 210 °C.
To `CCOC(=O)c1ncc2[nH]c3cccc(Oc4ccc(Cl)cc4)c3c2c1COC` belongs 207 °C.
As for `O=C1C=CC(O)(c2nccs2)C=C1`, the figure is 138 to 139 °C; as for `CN(C)c1ccc(N(c2ccccc2)C2(c3ccc(N(C)C)cc3)OC(=O)c3cc(N(C)C)ccc32)cc1` (stereo not given), 163 to 164 °C; as for `COc1ccc2c(-c3ccccc3)c([N+](=O)[O-])oc2c1`, 100 to 106 °C.
To `CN1C(=O)CCC1(O)c1ccc(Cl)c(S(=O)(=O)Nc2cc(C(C)(C)C)c(O)c(C(C)(C)C)c2)c1` (stereo not given) belongs 120 to 130 °C; to `Cc1c(N)c2c(c3c1C(c1ccc(C(C)C)cc1)CO3)CCCC2` (stereo not given), 106 to 107 °C; to `O=C(O)c1cc(-c2ccncc2)c[nH]c1=O`, greater than 300 °C.
On to `CC1CCN(C2C3=CC(OC3=O)C3C(CC4(C)OC4C2OC(=O)c2ccccc2)OC(=O)C3C)CC1` (stereo not given), for which the melting point worked out at 234 °C.
As for `C=C(C)CCC(=O)C(C(=O)OCC)C1c2ccccc2C(=O)N1c1ccc2ccc(Cl)nc2n1` (stereo not given), the figure is 125 °C; as for `CS(=O)(=O)Nc1cc2occc(=O)c2cc1O`, greater than 250 °C.
As for `COc1ccnc(CSc2nc3c(C)c(OC(F)F)c(C)cc3[nH]2)c1`, the figure is 168 to 169 °C; as for `CC(=O)c1ccc(CC2SC(=O)NC2=O)cc1` (stereo not given), 171 to 172 °C; as for `CCOCCOc1c(C2CCN(CCCCNC(=O)c3ccc(-c4ccc(C(F)(F)F)cc4)cc3)CC2)ccc2c1CCCC2`, 190 °C.
For `Brc1ccc2c(c1-c1c(Br)ccc3c1CCCC3)CCCC2`, the melting point lay in the range of 146 to 147 °C.
To `CCCCCn1cc(C(=O)O)c(=O)c(I)c1C` belongs 154 °C; to `O=C(c1ccc(F)cc1)c1cc2ccsc2s1`, 113 °C.
As for `CC(C)(Cl)C(=O)c1ccc(C(=O)c2ccc(C(=O)C(C)(C)Cl)cc2)cc1`, the figure is 82 to 83 °C; as for `CN(C)c1ccc(NC(=O)N(CC2CCC(CN(C(=O)Nc3ccc(N(C)C)cc3)C3C4CC5CC(C4)CC3C5)CC2)C2C3CC4CC(C3)CC2C4)cc1` (stereo not given), 182 to 185 °C.
On to `CCN(CC)c1ccc(NC(=O)N(C[C@H]2CC[C@H](CN(C(=O)Nc3ccc(N(CC)CC)cc3)C3CCCCC3)CC2)C2CCCCC2)cc1`, for which the melting point lay within 212 to 217 °C.
In turn, `CC1Nc2ccc(-c3cc(F)cc(C#N)c3)cc2C(C)(C)O1` (stereo not given) returned a melting point of 163 to 164 °C.
`O=C(O)c1cccc2ncc(-c3ccccc3)cc12` had a melting point greater than 290 °C.
The compound `C#CCOc1ccc(C(=O)C=Cc2cccs2)c(O)c1` yielded a melting point of 83 to 85 °C.
As for `CCSC(=O)CCS(=O)CC` (stereo not given), the figure is 35.5 to 36 °C; as for `Cc1cc2nc(NC(=O)NCCN3CCOCC3)sc2cc1OC(C)c1c(Cl)ccc(F)c1Cl` (stereo not given), 270 to 276 °C.
To `O=[N+]([O-])c1ccc(OCCOc2ccccc2)cc1` belongs 86 to 87 °C; to `OC[C@H](O)[C@H](O)[C@@H](O)[C@@H](O)C=NNc1ccccc1`, 198 to 199 °C.
Turning to `COc1ccc(-c2nn(CCCc3ccccc3)c(=O)cc2-c2ccncc2)cc1`, the melting point fell in the range of 67.7 to 68.3 °C.
As for `COC(=O)[C@H](Cc1ccccc1)NC(=O)c1ccc([N+](=O)[O-])cc1`, the figure is 115 to 116 °C; as for `COc1ccc2c(c1)N=C(N1CCN(C)CC1)c1cccc3c1N2CC3`, 152 to 155 °C.
As for `O=C(NC12CC3CC(CC(C3)C1)C2)c1ncn(-c2ccccc2)c1Br`, the figure is 229 to 232 °C.
Compound `CCCc1c(OCCC(C)Br)ccc(C(C)=O)c1O` (stereo not given) displayed a melting point of 53 to 55 °C.
`CCOC(=O)c1c(Cn2cnnc2)nc2cc(OC)c(OC)cc2c1-c1ccc(OC)c(OC(C)C)c1` showed a melting point of 170 to 171 °C.
`CCNc1nc(-c2ccc(F)cc2)c(-c2ccc(S(C)(=O)=O)cc2)s1`: the melting point fell in the range of 218 to 219 °C.
As for `CC(=O)N1CCC(=C2c3ccc(Cl)cc3CCc3cccnc32)CC1`, the figure is 155 to 157 °C; as for `COC(=O)C=Cc1ccc(OC)c(C)c1`, 70 to 73 °C; as for `C=CCc1c(O)c(C(C)=O)cc(C(C)=O)c1O`, 84 to 86 °C.
As for `CC(C)Sc1cn(C)cc(-c2cccc(C(F)(F)F)c2)c1=O`, the figure is 93 to 94 °C; as for `Cc1cc(-c2ncn3c(C(F)(F)F)cc(-c4ccc(F)c(Cl)c4)nc23)ccn1`, 255 °C; as for `O=[N+]([O-])c1ccc(Nc2nc(Cl)nc3nc[nH]c23)cc1`, greater than 270 °C.
To `O=C(O)c1ccc(-c2nc(NCc3ccc4c(c3)OCO4)c3cc([N+](=O)[O-])sc3n2)cc1` belongs 172 °C; to `COc1ccc(Cc2ccc(Sc3ccccc3)s2)cc1`, 92 to 93 °C.
Take `Nc1cc2c(Nc3ccc(OCc4ccccn4)c(Cl)c3)ncnc2cn1`: the melting point was 247 to 250 °C.
As for `COc1cccc(C(=O)C=C2CCCN2C)c1`, the figure is 92 to 93 °C; as for `CCCc1cc2c(c3c1[nH]c1ccc(OC)cc13)C(=O)N(CCN(C)C)C2=O`, 207 to 208 °C; as for `O=C1CCC2=C1C(c1ccc(Br)s1)C1=C(CCS1)N2` (stereo not given), 246 to 247 °C.
To `Cn1ncc(C(=O)N2CCC2)c1C(=O)Nc1ccn2nc(-c3ccncc3)nc2c1` belongs greater than 250 °C.
Take `CCc1oc2ccccc2c1C(=O)NCc1ccc2cc(O)ccc2c1`: the melting point lay in the range of 203 to 205 °C.
To `CNn1c(SC)nnc(-c2ccccc2)c1=O` belongs 119 to 120 °C; to `COCCOC12CC(CO)CN(C)C1Cc1c[nH]c3cccc2c13` (stereo not given), 188 to 193 °C; to `Nc1ncc2cc(-c3c(Cl)cccc3Cl)c(=O)n(Cc3ccccc3)c2n1`, 220 to 222 °C.
As for `CNC(=NC#N)NCCSCc1ccc(CN(C)C)o1`, the figure is 79 to 81.5 °C; as for `Cc1ccc(S(=O)(=O)OCC2(C)Cc3cc(Cl)cc(OS(=O)(=O)C(F)(F)F)c3O2)cc1` (stereo not given), 100 to 102 °C.
As for `c1cc2cc[nH]c2cn1`, the figure is 132 to 134 °C; as for `O=c1c2ccccc2nc(CCl)n1-c1ccccc1Cl`, 195 to 196 °C; as for `CC1(C)NC(=O)CN1C(=O)CN`, 145 to 148 °C.
In turn, `CCCc1c(OCCCOc2ccc(CC(=O)O)cc2Br)ccc(C(C)=O)c1O` had a melting point of 111 to 112 °C.
As for `COc1cc(Oc2cccc(OC(F)(F)F)c2)nc(C(=O)Nc2ccccc2)c1`, the figure is 95 to 98 °C; as for `CN1C[C@]2(C)CC[C@](NCC(=O)N3C[C@@H](F)C[C@H]3C#N)(C1)C2(C)C`, 122 to 126 °C.
To `O=C(COc1ccc(Cl)cc1Cl)OCNC(=O)Oc1cccc(Cl)c1` belongs 110 °C.
As for `CN1CCN(S(=O)(=O)CCCO)CC1`, the figure is 90 to 93 °C.
Compound `Cc1ccc(N=c2sc3ncccc3c(=O)n2C)cc1` gave a melting point of 144 °C.
Take `CN(C)c1noc(-c2cc(C(C)(C)C)c(O)c(C(C)(C)C)c2)n1`: the melting point lay in the range of 135 to 138 °C.
Consider `Nc1ccc(Nc2c(NCc3ccccc3)cc(C(=O)O)cc2S(=O)(=O)Nc2ccc(N)cc2)cc1`, for which the melting point was 238 °C.
Consider `Nc1ccccc1NC(=O)CCN1CCN(c2cccc(C(F)(F)F)c2)CC1`, for which the melting point was in the range of 194 to 196 °C.
As to `Cc1c(N2CCN(Cc3ccccc3)C(C)(C)C2)c(F)cc2c(=O)c(C(=O)O)cn(C3CC3)c12`, the melting point is 170 to 171 °C.
To `CCn1cc(C(=O)O)c(=O)c2cc(F)c(N3CCNC(c4cc5ccccc5o4)C3)cc21` (stereo not given) belongs 226 to 228 °C; to `O=C/C=C/c1cccc(Cl)c1Cl`, 94 to 95 °C; to `Cc1[nH]c(=O)[nH]c1C(=O)Cc1ccccc1`, 239 to 240 °C.
As for `CCNCC1CCN(c2c(F)cc3c(=O)c(C(=O)O)cn(CC(F)(F)F)c3c2F)C1` (stereo not given), the figure is 222 to 224 °C.
As for `CC(C)NC(=S)Nc1cccc(NC(=O)Nc2ccc(Cl)cc2)c1`, the figure is 197 to 198 °C.
Consider `Nc1ccn(-c2ccc(Br)cc2)n1`, for which the melting point lay within 122 to 123 °C.
`CC(C)NC1=NS(=O)(=O)c2cc(N)ccc2N1` gave a melting point of 278 to 283 °C.
To `OC(c1cccs1)C1CCCCC1` (stereo not given) belongs 90 to 92 °C.
As for `COc1ccc(S(=O)(=O)Nc2cc(Cl)ccc2/C=C/c2ccncc2)cc1`, the figure is 190 to 193 °C.
